Assay results from BindingDB's records for patent US20250289812 (Shanghai Institute Of Materia Medica, 2025).

Biological target: T1, Proto-oncogene tyrosine-protein kinase Src [84-145] (UniProt P12931)
T1 construct: 84-145
Experiment: Surface Plasmon Resonance Experiment
Procedure: Experimental method: Surface plasmon resonance test was carried out on BIACORE T200 instrument (GE Company). Fresh purified grade Src kinase SH3 domain protein (concentration 2 mg/ml) was diluted to 0.1 mg/ml with 10 mM CH3COONa (pH 4.2) and then SH3 protein was coupled to the CM5 chip by standard amino coupling methods. The compounds of the invention were diluted in a gradient using a buffer solution (20 mM Tris-HCl, PH 8.0, 100 mM NaCl) for 60 seconds and dissociated for 120 seconds at a flow rate of […], respectively. The changes in response values over time were recorded and analyzed by the BIA Evaluation Software (GE Healthcare) program to obtain the dissociation constants KD for the different compounds with SH3 protein.

| Kd | Structure (SMILES) |
| --- | --- |
| < 1000 nM | COc1cnc2c(c1)c(C(N)=O)c(CNC(=N)N)n2C [US20250289812, Example SYY-C036] |
| < 1000 nM | CCOC(=O)c1c(CNC(=N)N)n(C)c2cc(C3CC4CCC3C4)ccc12 (configuration not stated) [US20250289812, Example SYY-C069] |
